Measured values reported in patent publication US9296687B2, “Modulators of HSP70/DnaK function and methods of use thereof” (The Trustees of the University of Pennsylvania, priority 2008, dated 2016).
“Also recorded” adds a separate entry of the source.

Experiments:
[1] = test system: H1299 human lung carcinoma cells; assay: MTT cell viability assay; type: cell-based
Protocol: (§1) Cell viability assays were performed using an MTT (methyl thiazolyl tetrazolium) colorimetric assay (Roche Applied Science, Cat. No. 11 465 007 001), with the following modifications. Briefly, cells (1×10^4) were plated into 24 well-assay plates in 0.5 ml media and allowed to attach overnight. […] After the incubation period, 50 μl of the water-soluble MTT labeling reagent [3-[4,5-dimethylthiazol-2-yl]-2,5-diphenyl tetrazolium bromid] were added to the cells, and the cells were incubated for 4 h in a humidified chamber at 37° C. with 5% CO2. The metabolized insoluble formazan crystals were then solubilized using 0.5 ml of the Solubilization solution (10% SDS in 0.01M HCl) per well, and the resulting colored solutions were spectrophotometrically quantified at an absorbance of 570 nm.

[2] = test system: normal human lung fibroblasts (IMR90); assay: MTT cell viability assay; type: cell-based; conditions: 24 h, except at the highest concentrations used
Protocol: as §1

[3] = test system: WI38 human fetal lung fibroblasts; assay: MTT cell viability assay; type: cell-based; conditions: except at the highest concentration tested (20 μM)
Protocol: as §1

[4] = test system: MCF7 human breast carcinoma cells; assay: MTT assay, PES followed by 17-AAG; type: cell-based; conditions: 5 μM PES 1 h, then 17-AAG 47 h
Protocol: FIG. 17. PES impairs the proteasome system. (A) Cell-based 20S proteasome activity assay of H1299 or A875 human tumor cells treated with DMSO, 20 μM PES, 100 nM Velcade (proteasome inhibitor), 1 μM 17-AAG (HSP90 inhibitor), 5 μM CQ (lysosome inhibitor), or 20S proteasome inhibitor epigallocatechin gallate (EGCG). Each graphical representation indicates the mean±SD of at least three independent cultures relative to control (DMSO-treated) cells. (B) Cell extracts from SKBR3 human breast carcinoma cells, treated either with 20 μM PES or 1 μM 17-AAG for 24 h, were immunoprecipitated (IP) using anti-HSP70 or anti-HSP90 antibody. […] MTT assays of MCF7 human breast carcinoma cells pretreated with DMSO, or 5 μM PES for 1 h, followed by the addition of indicated amount of 17-AAG for 47 h. The results represent the mean±SD of at least three independent analysis of cultures relative to control (DMSO-treated) cells. […]
Cell viability assays were performed using an MTT (methyl thiazolyl tetrazolium) colorimetric assay (Roche Applied Science, Cat. No. 11 465 007 001), with the following modifications. […] The metabolized insoluble formazan crystals were then solubilized using 0.5 ml of the Solubilization solution (10% SDS in 0.01M HCl) per well, and the resulting colored solutions were spectrophotometrically quantified at an absorbance of 570 nm.

HSP70 = HSP70 (Homo sapiens, UniProt P0DMV8); assay: Capture of HA-tagged HSP70 constructs from transfected H1299 cells with biotinylated compound; type: binding; design: expressed in transfected cells; host or cells: H1299; conditions: biotinylated compound, 6 hours
Sequence of HSP70 (P0DMV8 2-641): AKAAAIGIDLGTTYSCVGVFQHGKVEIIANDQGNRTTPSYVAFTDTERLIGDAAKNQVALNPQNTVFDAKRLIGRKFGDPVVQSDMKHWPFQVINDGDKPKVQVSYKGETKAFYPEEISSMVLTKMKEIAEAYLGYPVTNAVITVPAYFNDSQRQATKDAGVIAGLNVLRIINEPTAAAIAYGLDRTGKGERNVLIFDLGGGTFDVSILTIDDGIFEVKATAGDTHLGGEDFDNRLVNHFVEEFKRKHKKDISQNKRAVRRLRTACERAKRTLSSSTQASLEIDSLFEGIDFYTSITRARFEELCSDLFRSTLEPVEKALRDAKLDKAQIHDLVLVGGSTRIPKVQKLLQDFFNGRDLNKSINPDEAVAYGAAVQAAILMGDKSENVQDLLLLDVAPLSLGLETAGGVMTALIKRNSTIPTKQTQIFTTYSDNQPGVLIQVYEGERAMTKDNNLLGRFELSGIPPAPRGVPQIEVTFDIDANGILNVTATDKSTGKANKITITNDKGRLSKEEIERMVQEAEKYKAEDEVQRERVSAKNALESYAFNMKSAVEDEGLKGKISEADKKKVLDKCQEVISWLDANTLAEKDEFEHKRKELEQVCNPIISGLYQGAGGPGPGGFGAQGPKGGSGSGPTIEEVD
Protocol: FIG. 1. PES Binds to HSP70. (A) Whole cell extracts (WCE) prepared from A875 and BCL-xL over-expressing U2OS human osteosarcoma cells (BX-U2OS) cells, treated with Biotin or Biotin-PES (B-PES), were captured using NeutrAvidin agarose resins. HSP70-family proteins were identified as the major product in the excised band of ˜70 kDa shown in both Coomassie gels. (B and C) WCE were prepared from the cell lines indicated following 24 h treatment with 20 μM Biotin or B-PES and examined for the expression of proteins indicated (left panel of B and C) by western blot analysis; note that different exposure times were used to visualize these proteins. […] (D) In vitro evidence for an interaction between B-PES and HSP70. Full-length human HSP70 and human HSP90 proteins were in vitro translated in the presence of ^35S-methionine, mixed with B-PES coupled to NeutrAvidin resins, and eluted using 100 mM DTT. The resulting DTT eluates were separated by polyacrylamide gel electrophoresis (SDS-PAGE) and visualized by autoradiography. (E) B-PES interacts with the C-terminal region of HSP70. H1299 cells were transfected with the indicated hemagglutinin (HA)-tagged constructs and exposed to B-PES. B-PES containing complexes were captured by NeutrAvidin Resins, eluted following 100 mM DTT treatment, and immunoblotted with anti-HA antibody following SDS-PAGE. (F) Non-transformed human IMR90 fibroblasts or H1299 lung carcinoma cells were treated with the indicated concentrations of PES for 24 h and cell viability was determined by MTT assays. (G) WCE were prepared from the cell lines indicated following 5 hr treatment with 20 μM PES or B-PES and examined for the expression of proteins indicated (left panel) by western blot analysis; note that different exposure times were used to visualize these proteins. B-PES-containing complexes were captured by NeutrAvidin resins, eluted following 50 mM DTT treatment, and immunoblotted using the indicated antibodies.
The free amide group of PES-Cl was biotinylated and added to HA-tagged HSP70-transfected H1299 cells. The treatment of the cells occurred for 6 hours. The complexes were pulled down with NeutrAvidin beads, eluted with 100 mM DTT treatments, separated with SDS-PAGE and detected with anti-HA antibody (Millipore) by Western blot.
Docking studies were performed using the C-terminal HSP70 crystal structure (FIG. 32) to elucidate the PES binding site in silico (FIG. 33). Blind docking methods were used in the program AutoDock to locate potential PES binding sites. These methods use a course grid docking approach, encompassing the entire protein, to identify favorable binding sites using a known binding ligand, and are examined by hand to support the AutoDock data. […]

p62/SQSTM1, LC3 = assay: Autophagy markers in cultured cells (vacuoles, LC3-II, p62/SQSTM1, electron microscopy); type: cell-based, human
Eμ-Myc transgenic mice = assay: Eμ-Myc mouse model of lymphomagenesis; type: in vivo
Protocol: To evaluate the efficacy of PES as a chemopreventative agent, Eμ-Myc transgenic mice were injected every 5 days, starting at 8 weeks of age, with either vehicle or PES (40 mg/kg) prepared in PBS. All animals received a total of 7 injections, either with PES or vehicle. Consequently, no injection was given after day 86. All mice were observed daily for signs of morbidity and the development of lymphoma. All experiments with mice were approved by, and conformed to, the guidelines of the Institutional Animal Care and Use Committee of the Fox Chase Cancer Center. These mice may also be used to advantage to test the beneficial therapeutic combinations of agents and/or treatments described herein.
Beginning at 6 weeks of age, Eμ-myc transgenic mice were treated either with vehicle, 20 mg/kg PES or 20 mg/kg PES-Cl with weekly i.p. injections of tested compound (FIG. 27).

## NS(=O)(=O)C#Cc1ccccc1 [PES, 2-Phenylethynesulfonamide]
[1]
  cell viability: effective at killing HI299 lung carcinoma cells; also recorded: dose-dependent loss of viability
[1]; HSP70 shRNA, 20 μM PES 24 h
  PES-induced cell death after silencing of HSP70: rescued PES-induced cell death
[2]
  cell viability: minimal effect
[3]
  cell viability: no decrease in cell viability
[4]
  cell killing by 17-AAG: sensitizes cells to cell killing by 17-AAG
HSP70
  interaction with HA-tagged HSP70: interact with HSP70
p62/SQSTM1, LC3; 20 μM
  LC3-II level: higher levels of LC3-II
p62/SQSTM1, LC3; 20 μM, 7 or 24 h
  autophagosomes and autophagolysosomes by electron microscopy: rapid and substantial increase in multiple double-membrane autophagosomes and single-membrane autophagolysosomes
p62/SQSTM1, LC3; 24 h
  intracytoplasmic vacuoles: progressive accumulation of intracytoplasmic vacuoles
p62/SQSTM1, LC3; 24 h, PES 20 μM, Velcade 100 nM, CQ 50 μM, 17-AAG 15 nM
  p62/SQSTM1 oligomers in soluble and detergent-insoluble fractions: higher molecular weight forms of p62/SQSTM1 in both the soluble and detergent-insoluble fractions
p62/SQSTM1, LC3; H1299 cells, increasing concentrations, 24 h
  p62/SQSTM1 accumulation and oligomerization: notable increase in p62/SQSTM1 accumulation and oligomerization
p62/SQSTM1, LC3; IMR90 cells, 24 h
  p62 oligomerization and LC3-II accumulation: only a modest degree of p62 oligomerization and LC3-II accumulation
p62/SQSTM1, LC3; IP-WB, MiaPaCa2, A875
  interaction between LC3 and p62/SQSTM1: enhanced the interaction
p62/SQSTM1, LC3; western blot
  accumulation and oligomerization of p62/SQSTM1: promotes an accumulation and oligomerization of p62/SQSTM1 in a time- and dose-dependent manner
Eμ-Myc transgenic mice; 40 mg/kg i.p. once every five days for 30 days
  tumor development: markedly impaired tumor development
Eμ-Myc transgenic mice; 40 mg/kg intra-peritoneally every 5 days for 30 days
  overall mean survival time: > 140 days
